Measurements: the COVID Moonshot data (paper PMC11187573), “Identification of SARS-CoV-2 Mpro inhibitors through deep reinforcement learning for de novo drug design and computational chemistry approaches” (RSC Medicinal Chemistry, 2024)

Experiments:
[1] = target: SARS-CoV-2 Main Protease (SARS-CoV-2) (UniProt P0DTD1)
[2] = target: SARS-CoV-2 Main Protease (SARS-CoV-2) (UniProt P0DTD1); remark: listed apart in the source
Description: Briefly, compounds were seeded into assay-ready plates (Greiner 384PP, cat# 781280) using an ECHO 650T dispenser and DMSO was back-filled for a uniform concentration in assay plates (DMSO concentration < 1%, final volume = 500 nL.). […] After a quick centrifugation step (1000 rpm, 15 s) the plate is incubated for 15 min at room temperature. […] After centrifugation (1000 rpm, 14 s) the reaction is incubated for 10 min (11-mer) or 5 min (37-mer) at room temperature before quenching with 10 % formic acid. The reactions are analysed with MS using RapidFire (RF) 365 high-throughput sampling robot (Agilent) connected to an iFunnel Agilent 6550 accurate mass quadrupole time-of-flight (Q-TOF) mass spectrometer using electrospray. […] Dose response curves uses an 11-point range of 100--0.0017 µM inhibitor concentrations. RapidFire integrator software (Agilent) was used to extract the charged states from the total ion chromatogram data followed by peak integration. For the 11-mer peptide the m/z (+1) charge states of both the substrate (1191.67 Da) and cleaved N-terminal product TSAVLQ (617.34 Da) were used and the 37-mer peptide the m/z (+2) charge states of the substrate (3960.94 Da) and m/z (+1) of the cleaved C-terminal product [sequence] (1125.57 Da). Percentage conversion (product peak integral / (product peak integral + substrate peak integral))*100) and percentage inhibitions were calculated and normalised against DMSO control with deduction of any background signal in Microsoft Excel. IC50s were calculated using Levenberg–Marquardt algorithm used to fit a restrained Hill equation to the dose-response data with both GraphPad PRISM and CDD.

trypsin = trypsin (UniProt P07477)
trypsin, sequence (P07477 whole entry, looked up): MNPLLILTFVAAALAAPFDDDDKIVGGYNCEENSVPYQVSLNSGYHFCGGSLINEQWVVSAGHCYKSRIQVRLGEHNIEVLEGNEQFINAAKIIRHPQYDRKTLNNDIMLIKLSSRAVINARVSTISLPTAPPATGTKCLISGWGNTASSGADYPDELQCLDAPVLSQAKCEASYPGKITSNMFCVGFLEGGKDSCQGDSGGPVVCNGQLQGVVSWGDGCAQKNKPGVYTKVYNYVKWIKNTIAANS

| Compound | inhibition ([1]; 20.0 µM) [%] | inhibition ([1]; 50.0 µM) [%] | IC50 [2] [µM] | inhibition ([2]; 50.0 µM) [%] | IC50 (trypsin) [µM] | relative solubility at 20 uM | relative solubility at 100 uM | inhibition ([2]; 20.0 µM) [%] |
| --- | --- | --- | --- | --- | --- | --- | --- | --- |
| COc1cc(CN2CCN(C(=O)CCl)CC2)c2ccccc2c1 | 82.8 | 90.9 | 1.62 | 100 | 81.7 | 1 | 0.95 |  |
| C=CC(=O)N(c1ccc(C(C)(C)C)cc1)C(C(=O)Nc1ccc2c(c1)OCO2)c1cccnc1 (configuration not stated) | 41.1 | 60.4 | 62.1 | 100 | 72.5 |  |  |  |
| O=C(CCl)N1CCN(Cc2cc(Cl)ccc2CNC(=O)N2CCOCC2)CC1 | 77.2 | 79 | 5.55 | 93.3 | 15.8 | 0.98 | 0.94 |  |
| C=CC(=O)N(c1ccc(C2(C)CC2)cc1)C(C(=O)Nc1ccc(Br)cc1)c1cccnc1 (configuration not stated) |  | 47.1 | 19.4 | 67.8 | 58.2 | 1 | 1.01 | 2.51 |
| C=CC(=O)N(c1ccc(N(C)C)c(C)c1)C(C(=O)Nc1c(C)cccc1CC)c1cccnc1 (configuration not stated) | 6.4 | 13.2 |  |  |  | 0.9 | 0.77 | 0 |
| O=C1C(=O)N(Cc2ccc(Br)cc2)c2c(Br)cccc21 | 1.5 | -1.15 | 0.485 | 100 |  | 0.99 | 0.97 |  |
| Cc1ccccc1NC1CCN(c2ccc(S(N)(=O)=O)cc2)CC1 | 4.98 | 7.22 |  | 37.6 |  | 0.91 | 0.91 | 25.2 |
| C=CC(=O)N(c1ccc(C(C)OC)cc1)C(C(=O)Nc1ccc(Cl)cc1)c1cccnc1 (configuration not stated) | 12.3 | 26.1 |  |  |  | 0.84 | 0.76 | 0 |
| Cc1ccc(C)c(N(C)C(=O)Cc2cnn(C)c2C)c1 | 7.75 | 11.4 |  | 0 |  | 0.97 | 0.98 |  |
| NS(=O)(=O)c1ccc(N2CCC(c3nc4ccccc4s3)CC2)cc1 | -11.9 | -12 |  |  |  | 0.76 | 0.52 | 0 |
| O=C(Cc1ccccc1)Nc1cccc(OC2CC(=O)N2)c1 (configuration not stated) | -2.28 | -0.808 |  | 0 |  | 1 | 1 |  |
| C=CC(=O)N(c1ccc(C(C)(C)C)cc1)C(C(=O)NC1CCCC1)c1cccnc1 (configuration not stated) | -10.5 | -12.8 |  | 1.68 |  | 1.01 | 1 | 0 |
| Cc1cccc(C2CN(C(=O)CCl)Cc3ccccc32)c1 (configuration not stated) | 98.1 | 99.7 | 0.42 | 53.8 |  | 1 | 0.93 |  |
| C=CC(=O)N(c1ccc2ncsc2c1)C(C(=O)Nc1ccc(Cl)cc1)c1cccnc1 (configuration not stated) | 8.95 | 25.3 |  |  |  | 0.87 | 0.69 | 2.57 |
| Cc1ccncc1NC(=O)C(C)c1cccc(Cl)c1 (configuration not stated) | 58 | 78.7 | 13 |  |  | 1 | 1 | 20.4 |
| C=CC(=O)N(c1ccc(C(C)(C)C)cc1)C(C(=O)NC(C)(C)C)c1cnc[nH]1 (configuration not stated) | -20.2 | -23.6 |  | 0 |  | 0.99 | 0.89 | 0 |

| Compound | inhibition ([1]; 20.0 µM) [%] | inhibition ([1]; 50.0 µM) [%] | IC50 [2] [µM] | inhibition ([2]; 50.0 µM) [%] | IC50 (trypsin) [µM] | relative solubility at 20 uM | relative solubility at 100 uM | inhibition ([2]; 20.0 µM) [%] |
| --- | --- | --- | --- | --- | --- | --- | --- | --- |
| O=C(CCl)N1CCN(Cc2nc(-c3cccs3)no2)CC1 | 6.55 | 17 |  | 0 |  | 0.98 | 0.93 |  |
| Cc1ccncc1NC(=O)[C@@H]1C[C@H]1CF (stereo in doubt) | 4.1 | 3.57 |  | 3.35 |  | 1 | 1 |  |
| COc1ccc(-c2cccc(S(=O)(=O)N3CCN(C(C)=O)CC3)c2)cc1 | -3.55 | 2.93 |  | 0 |  | 0.95 | 0.93 |  |
| Cc1cc(C)c(C)c(S(=O)(=O)N2CCN(C(=O)c3cc[nH]c(=O)c3)CC2)c1C | -1.5 | 5.56 |  | 0 |  | 0.99 | 0.98 |  |
| CNCc1c[nH]c2ccc(F)cc12 |  | 32.7 |  | 16.1 |  | 0.99 | 1 | 3.09 |
| CCN(CC1COc2ccccc2O1)C(=O)c1cc(=O)[nH]c2ccc([N+](=O)[O-])cc12 (configuration not stated) | 2.87 | -7.35 |  | 0 |  | 1 | 1 |  |
| C=CC(=O)N(c1ccc(C(C)OC)cc1)C(C(=O)Nc1ccc(OC)cc1C)c1cccnc1 (configuration not stated) | 2.91 | 6.9 |  |  |  | 0.99 | 0.97 | 0 |
| O=C(c1cc2sccc2s1)N1CCOC(CN2CCOCC2)C1 (configuration not stated) | 4.6 | 7.85 |  | 2.34 |  | 1 | 0.99 |  |
| Cc1ccncc1NS(=O)(=O)Cc1cccc(Cl)c1 | 4.3 | 9.77 |  | 19 |  | 1 | 0.99 |  |
| CC(=O)Nc1ccc(C#N)cc1CN1CCN(C(=O)CCl)CC1 | 20.6 | 43.4 | 17.5 |  |  | 1 | 1.01 | 59.2 |
| O=S(=O)(Cc1ccc(F)cc1)Nc1cccnc1 | 6.67 | -13.8 |  | -5.13 |  | 1 | 1 |  |
| O=C(CCl)N1CCCc2cc(NCc3ccc(F)cc3Cl)ccc21 | 25.3 | 52.5 |  |  | 51.8 | 0.81 | 0.39 | 47.9 |
| CC(C)(C)NC(=O)C(c1cccnc1)N(C(=O)c1ccco1)c1ccc(C(C)(C)C)cc1 (configuration not stated) | 74 | 86.6 |  | 23.9 |  | 1.01 | 0.99 |  |
| C=CC(=O)N(c1ccc(C(C)(C)C)cc1)C(C(=O)NCCCC(=O)OCC)c1cccnc1 (configuration not stated) | 6.16 | 30.9 |  | 14.6 |  | 0.99 | 0.96 | 0 |
| CC(CCc1ccccc1)N1CCN(C(=O)CCl)CC1 (configuration not stated) | 45 | 60.7 | 13.6 | 91.1 |  | 1 | 1 | 62.6 |
| Cc1ccncc1NC(=O)CC1CCCNC1 (configuration not stated) | -1.91 | 16.7 |  | 0 |  | 1 | 1 |  |
